Reference: publication PMC11191095, “QSAR Reveals Decreased Lipophilicity of Polar Residues Determines the Selectivity of Antimicrobial Peptide Activity” (ACS Omega, 2024)
Where a SMILES comes first, the peptide text is derived from it.

Columns and labels:
Assay in all cases: microbe, parasite or virus in culture
[1] = system: C. krusei NCPF 3876; assay type: cell-based; details: C. krusei NCPF 3876
Summary of the method: (§1)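 Peptides 128→2 μg/mL, 2-fold series; inoculum ~5 × 10^5 CFU/mL from overnight culture (OD600 0.01, mixed 1:1). MHB non-cation-adjusted for bacteria, RPMI 1640 + 2% glucose for fungi. 37 °C, 20 h, OD600. MIC50/MIC90 at 50%/90% inhibition; n ≥ 3.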

[2] = system: C. parapsilosis NCPF 3209; assay type: cell-based; details: C. parapsilosis NCPF 3209
Summary of the method: as §1

[3] = system: C. glabrata NCPF 8018; assay type: cell-based; details: C. glabrata NCPF 8018
Summary of the method: as §1

[4] = system: C. albicans NCPF 3281; assay type: cell-based; details: C. albicans NCPF 3281
Summary of the method: as §1

[5] = system: E. coli LEC001; assay type: cell-based, Escherichia coli; details: E. coli LEC001 (R)
Summary of the method: as §1

[6] = system: E. coli NCTC 12923; assay type: cell-based, Escherichia coli; details: E. coli NCTC 12923 (S)
Summary of the method: as §1

[7] = system: C. auris TDG 1912; assay type: cell-based, Candida auris; details: C. auris TDG 1912
Summary of the method: as §1

[8] = system: P. aeruginosa NCTC 13437; assay type: cell-based, Pseudomonas aeruginosa; details: P. aeruginosa NCTC 13437 (R)
Summary of the method: as §1

[9] = system: S. aureus (MRSA) 1199B; assay type: cell-based, Staphylococcus aureus; details: S. aureus (MRSA) 1199B (R)
Summary of the method: as §1

[10] = system: S. aureus (MSSA) ATCC 9144; assay type: cell-based, Staphylococcus aureus; details: S. aureus (MSSA) ATCC 9144 (S)
Summary of the method: as §1

[11] = system: S. aureus (MRSA) USA300; assay type: cell-based, Staphylococcus aureus; details: S. aureus (MRSA) USA300 (R)
Summary of the method: as §1

[12] = system: S. aureus (MRSA) NCTC 13616; assay type: cell-based, Staphylococcus aureus; details: S. aureus (MRSA) NCTC 13616 (R)
Summary of the method: as §1

[13] = system: A. baumannii ATCC 17978; assay type: cell-based, Acinetobacter baumannii; details: A. baumannii ATCC 17978 (S)
Summary of the method: as §1

[14] = system: A. baumannii AYE; assay type: cell-based, Acinetobacter baumannii; details: A. baumannii AYE (R)
Summary of the method: as §1

[15] = system: K. pneumoniae NCTC 13368; assay type: cell-based, Klebsiella pneumoniae; details: K. pneumoniae NCTC 13368 (R)
Summary of the method: as §1

[16] = system: K. pneumoniae M6; assay type: cell-based, Klebsiella pneumoniae; details: K. pneumoniae M6 (S)
Summary of the method: as §1

[17] = 50% growth inhibition, RPMI 1640 + 2% glucose, 37 °C, 20 h
[18] = 90% growth inhibition, RPMI 1640 + 2% glucose, 37 °C, 20 h
[19] = MHB, 37 °C, 20 h, OD600, min. three biological repeats

`CC[C@H](C)[C@H](NC(=O)[C@H](CCCCN)NC(=O)[C@H](CC(C)C)NC(=O)[C@H](C)NC(=O)[C@H](C)NC(=O)[C@H](CCCCN)NC(=O)[C@H](CC(C)C)NC(=O)[C@H](C)NC(=O)[C@@H](N)CCCCN)C(=O)NCC(=O)N[C@@H](C)C(=O)N[C@@H](CC(N)=O)C(N)=O` [CPF-P3-12a] (H-KALKAALKIGAN-NH2) was tested, and the “Modal MIC50” value [1, 17] was > 128 µg/mL, the “Modal MIC90” value [1, 18] was > 128 µg/mL and the “Modal MIC50” value ([1]; shown in µM) was > 103.8 µM. The “Modal MIC90” value ([1]; shown in µM) was > 103.8 µM, the “Modal MIC50” value [2, 17] was > 128 µg/mL and the “Modal MIC90” value [2, 18] was > 128 µg/mL. The “Modal MIC50” value ([2]; shown in µM) was > 103.8 µM, the “Modal MIC90” value ([2]; shown in µM) was > 103.8 µM and the “Modal MIC50” value [3, 17] was > 128 µg/mL. For the same molecule, the “Modal MIC90” value [3, 18] was > 128 µg/mL, the “Modal MIC50” value ([3]; shown in µM) was > 103.8 µM and the “Modal MIC90” value ([3]; shown in µM) was > 103.8 µM. For the same molecule, the “Modal MIC50” value [4, 17] was > 128 µg/mL, the “Modal MIC90” value [4, 18] was > 128 µg/mL and the “Modal MIC50” value ([4]; shown in µM) was > 103.8 µM. The “Modal MIC90” value ([4]; shown in µM) was > 103.8 µM, the “Modal MIC” value [5, 19] was > 128 µg/mL and the “Modal MIC” value ([5]; shown in µM) was > 103.8 µM. For the same molecule, the “Modal MIC” value ([6]; MHB, ~5×10^5 CFU/mL, 37 °C, 20 h, OD600, min. three biological repeats) was > 128 µg/mL, the “Modal MIC” value ([6]; shown in µM) was > 103.8 µM and the “Modal MIC50” value ([7]; 50% growth inhibition, RPMI 1640 + 2% glucose, 37 °C, 20 h, OD600) was > 128 µg/mL. The “Modal MIC90” value ([7]; 90% growth inhibition, RPMI 1640 + 2% glucose, 37 °C, 20 h, OD600) was > 128 µg/mL, the “Modal MIC50” value ([7]; shown in µM) was > 103.8 µM and the “Modal MIC90” value ([7]; shown in µM) was > 103.8 µM. The “Modal MIC” value [8, 19] was > 128 µg/mL, the “Modal MIC” value ([8]; shown in µM) was > 103.8 µM and the “Modal MIC” value [9, 19] was > 128 µg/mL. The “Modal MIC” value ([9]; shown in µM) was > 103.8 µM, the “Modal MIC” value [10, 19] was > 128 µg/mL and the “Modal MIC” value ([10]; shown in µM) was > 103.8 µM. For the same molecule, the “Modal MIC” value [11, 19] was > 128 µg/mL, the “Modal MIC” value ([11]; shown in µM) was > 103.8 µM and the “Modal MIC” value [12, 19] was > 128 µg/mL. For the same molecule, the “Modal MIC” value ([12]; shown in µM) was > 103.8 µM, the “Modal MIC” value [13, 19] was > 128 µg/mL and the “Modal MIC” value ([13]; shown in µM) was > 103.8 µM. The “Modal MIC” value [14, 19] was > 128 µg/mL, the “Modal MIC” value ([14]; shown in µM) was > 103.8 µM and the “Modal MIC” value [15, 19] was > 128 µg/mL. The “Modal MIC” value ([15]; shown in µM) was > 103.8 µM, the “Modal MIC” value [16, 19] was > 128 µg/mL and the “Modal MIC” value ([16]; shown in µM) was > 103.8 µM.
